# Reference: ChEMBL document CHEMBL5331056 (Eur J Med Chem, 2022)
# Columns and labels:
# [1] = Antioxidant activity assessed as DPPH radical scavenging activity measured after 1 hrs; format: functional
# MCF7 = assay: Anticancer activity against human MCF7 cells assessed as cell growth inhibition measured after 72 hrs by MTT assay; format: functional, cell-based; conditions: MCF7, 72 h
# PC-3 = assay: Anticancer activity against human PC-3 cells assessed as cell growth inhibition measured after 72 hrs by MTT assay; format: functional, cell-based; conditions: PC-3, 72 h
# [2] = Antioxidant activity assessed as DPPH radical scavenging activity measured after 30 mins; format: functional
# Mus musculus [3] = assay: Antidiabetic activity in STZ-induced Swiss albino mouse assessed as blood glucose level at 5 microM/kg, ip administered twice daily measured after 21 days (reference value: 220 +/- 7.2mg/dl); format: functional; conditions: time 21 day
# Mus musculus [4] = assay: Antidiabetic activity in STZ-induced Swiss albino mouse assessed as insulin level at 5 microM/kg, ip administered twice daily measured after 21 days (reference value: 88.7%); format: functional; conditions: time 21 day, at 5 µmol/kg
# Mus musculus [5] = assay: Antidiabetic activity in STZ-induced Swiss albino mouse assessed as inhibition of IL-1beta level at 5 microM/kg, ip administered twice daily measured after 21 days relative to control; format: functional; set-up: scale not given: the % may be the effect or the level left; conditions: time 21 day, at 5 µmol/kg
# Mus musculus [6] = assay: Antidiabetic activity in STZ-induced Swiss albino mouse assessed as inhibition of IFN-gamma level at 5 microM/kg, ip administered twice daily measured after 21 days relative to control; format: functional; set-up: scale not given: the % may be the effect or the level left; conditions: time 21 day, at 5 µmol/kg
# Mus musculus [7] = assay: Antidiabetic activity in STZ-induced Swiss albino mouse assessed as inhibition of NO level at 5 microM/kg, ip administered twice daily measured after 21 days relative to control; format: functional; set-up: scale not given: the % may be the effect or the level left; conditions: time 21 day, at 5 µmol/kg
# Mus musculus [8] = assay: Antiinflammatory activity in STZ-induced C57BL/6J mouse of non insulin dependent diabetes mellitus assessed as PPAR-alpha level at 30 mg/kg; format: functional
# Mus musculus [9] = assay: Antidiabetic activity in STZ-induced C57BL/6J mouse assessed as increase in insulin sensitivity at 30 mg/kg; format: functional
# [10] = Induction of insulin-sensitizing activity in insulin-resistant human HepG2 cells assessed as increase in glucose consumption at 30 ng/ml relative to control; format: functional, insulin-resistant human HepG2 cell
# [11] = Induction of insulin-sensitizing activity in insulin-resistant human HepG2 cells assessed as increase in glucose consumption at 60 ng/ml relative to control; format: functional, insulin-resistant human HepG2 cell
# [12] = test system: Human immunodeficiency virus; assay: Antiviral activity against HIV infected in MT4 cells assessed as viral replication; format: functional, organism-based; conditions: Human immunodeficiency virus 1, MT4
# Rattus norvegicus = assay: Antidiabetic activity against overnight fasted STZ-induced Wistar rat of type 1 diabetes assessed as increase in insulin level at 1 mg/kg, po by ELISA (reference value: 7.7 +/- 1.0 microIU/mL); format: functional
# [13] = Toxicity in STZ-induced Wistar rat of type 1 diabetes assessed as coronary arterial flow rate at 3 mg/kg, ip administered twice daily measured after 4 weeks (reference value: 12.6 +/- 0.5 mL/min); format: organism-based; conditions: in vivo, 672 h
smiles,measurement,setting,value
C[C@@]1(C(=O)O)O[C@H]1COC(=O)/C=C/c1ccc(O)c(O)c1,FRS50,[1],43.8 µM
CCCCCCCCCCOC/C=C/c1ccc(O)c(O)c1,IC50,MCF7,1.7 µM
same,IC50,PC-3,0.6 µM
CCCCCCCCCCOC/C=C/c1cccc(O)c1,IC50,MCF7,> 10 µM
same,IC50,PC-3,> 10 µM
COC(=O)/C=C/c1cc(O)c(O)cc1O,IC50,[2],53.3 µM
O=C(/C=C/c1ccc(O)c(O)c1)OCCc1ccccc1 [CAFFEIC ACID PHENETHYL ESTER],Activity,Mus musculus [3],137 mg/dL
same,Activity,Mus musculus [4],93.8%
same,Activity,Mus musculus [5],43.2%
same,Activity,Mus musculus [6],26.3%
same,Activity,Mus musculus [7],58.3%
same,Activity,Mus musculus [8],38.6%
same,Activity,Mus musculus [9],20.8%
same,Activity,[10],17.1%
same,Activity,[11],24.3%
O=C(O)/C=C/c1ccc(O)c(O)c1 [CAFFEIC ACID],IC50,[2],32.2 µM
CCCCCCCCCCOC/C=C/c1cc(O)c(O)c(O)c1,IC50,MCF7,0.8 µM
same,IC50,PC-3,0.6 µM
O=C1C=C(Cn2cc(COc3ccc(CO)cc3)nn2)C(=O)C=C1O,IC50,[12],4.2 µM
O=C(/C=C/c1ccc(O)c(O)c1)O[C@@H]1C[C@](O)(C(=O)O)C[C@@H](OC(=O)/C=C/c2ccc(O)c(O)c2)[C@H]1O,FRS50,[1],71.8 µM
CCCCCCCCCCOC/C=C/c1ccc(O)cc1,IC50,MCF7,> 10 µM
same,IC50,PC-3,> 10 µM
O=C(/C=C/c1ccc(O)c(O)c1)O[C@H]1[C@H](O)C[C@](O)(C(=O)O)C[C@H]1OC(=O)/C=C/c1ccc(O)c(O)c1,FRS50,[1],23.8 µM
Oc1ccc(/C=C/COCCCCCCc2ccccc2)cc1O,IC50,MCF7,2.4 µM
same,IC50,PC-3,1.4 µM
COC(=O)/C=C/c1ccc(O)c(O)c1O,IC50,[2],18.6 µM
O=c1c(O)c(-c2ccc(O)c(O)c2)oc2cc(O)cc(O)c12,FRS50,[1],13.4 µM
CC(=O)/C=C/c1ccc(O)c(O)c1O,IC50,[2],16.8 µM
Oc1ccc(/C=C/COCCCCCCc2ccccc2)cc1,IC50,MCF7,> 10 µM
same,IC50,PC-3,> 10 µM
O=C(/C=C/c1ccc(O)c(O)c1)NCCc1ccccc1 [CAFFEIC ACID PHENETHYL AMIDE],Activity,Rattus norvegicus,14.9 uIU/ml
same,Activity,[13],11.2 mL/min
Oc1ccc(/C=C/COCCc2ccccc2)cc1,IC50,MCF7,> 10 µM
same,IC50,PC-3,> 10 µM
Oc1ccc(/C=C/COCCc2ccccc2)cc1O,IC50,MCF7,8 µM
same,IC50,PC-3,1.2 µM
O=C(/C=C/c1ccc(O)c(O)c1)O[C@@H]1[C@H](O)C[C@@](O)(C(=O)O)C[C@H]1OC(=O)/C=C/c1ccc(O)c(O)c1,FRS50,[1],19.8 µM
